Several values for one entry are separate records, joined by “and”; a condition that tells them apart may be missing. Equal entries are not always repeated. Toxic doses and inconclusive results are not listed. No stated cut-off is given here; in the data, active means T/C of 150% or more; inactive means T/C below 125%.
Test system: L1210 leukemia ip in BDF1 mice, survival T/C
Test: NCI In Vivo Anticancer Drug Screen. Data for tumor model L1210 Leukemia (intraperitoneal) in B6D2F1 (BDF1) mice
Conditions: endpoint: mean survival time, higher = longer survival
Summary of the method: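 Value reflects the ratio of survival in compound-treated mice to survival in vehicle-treated controls, with both groups carrying the same transplanted tumor.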

[1] = dose: 100.0 mg/kg/injection, schedule: Q01DX001 (ip), vehicle: saline
[2] = dose: 200.0 mg/kg/injection, schedule: Q01DX001 (ip), vehicle: saline
[3] = dose: 100.0 mg/kg/injection, schedule: Q01DX009 (ip), vehicle: saline
[4] = dose: 200.0 mg/kg/injection, schedule: Q01DX009 (ip), vehicle: saline
[5] = dose: 400.0 mg/kg/injection, schedule: Q01DX009 (ip), vehicle: saline
[6] = dose: 50.0 mg/kg/injection, schedule: Q01DX009 (ip), vehicle: saline with Tween-80
[7] = dose: 100.0 mg/kg/injection, schedule: Q01DX009 (ip), vehicle: saline with Tween-80
[8] = dose: 100.0 mg/kg/injection, schedule: Q04DX003 (ip), vehicle: saline with Tween-80
[9] = dose: 200.0 mg/kg/injection, schedule: Q01DX009 (ip), vehicle: saline with Tween-80
[10] = dose: 200.0 mg/kg/injection, schedule: Q04DX003 (ip), vehicle: saline with Tween-80
[11] = dose: 400.0 mg/kg/injection, schedule: Q04DX003 (ip), vehicle: saline with Tween-80
[12] = dose: 50.0 mg/kg/injection, schedule: Q01DX009 (ip), vehicle: Klucel (hydroxypropylcellulose) (HPC)
[13] = dose: 100.0 mg/kg/injection, schedule: Q01DX009 (ip), vehicle: Klucel (hydroxypropylcellulose) (HPC)
[14] = dose: 200.0 mg/kg/injection, schedule: Q01DX009 (ip), vehicle: Klucel (hydroxypropylcellulose) (HPC)
[15] = dose: 25.0 mg/kg/injection, schedule: Q01DX009 (ip), vehicle: Klucel (hydroxypropylcellulose) (HPC)

Measured: T/C

CCC1C(=O)OCc2c1cc1n(c2=O)CCC1 (stereo not drawn)
inactive: dose: 25.0 mg/kg/injection, schedule: Q01DX001 (ip), vehicle: saline 113 % of control | dose: 50.0 mg/kg/injection, schedule: Q01DX001 (ip), vehicle: saline 104 % of control | [1] 104 % of control | [2] 115 % of control

O=C(O)C12CCC(CC1)C2
inactive: dose: 50.0 mg/kg/injection, schedule: Q01DX009 (ip), vehicle: saline 106 % of control | [3] 110 % of control | [4] 112 % of control | [5] 96 % of control

NC(=O)N/C=C1\CCCOC1=O
inactive: [6] 98 % of control | [7] 93 % of control and 91 % of control | [8] 96 % of control | [9] 98 % of control and 109 % of control | [10] 104 % of control | dose: 400.0 mg/kg/injection, schedule: Q01DX009 (ip), vehicle: saline with Tween-80 109 % of control

CCOC(=O)C(C=O)C(C(=O)OCC)C(OCC)OCC (stereo not drawn)
inactive: [8] 111 % of control | [10] 104 % of control | [11] 109 % of control

O=C(Nc1c[nH]c(=O)[nH]c1=O)C(Cl)Cl
inactive: dose: 16.0 mg/kg/injection, schedule: Q01DX Z (ip), vehicle: methylcellulose (MC) 91 % of control | dose: 31.0 mg/kg/injection, schedule: Q01DX Z (ip), vehicle: methylcellulose (MC) 95 % of control | [12] 103 % of control | dose: 62.0 mg/kg/injection, schedule: Q01DX Z (ip), vehicle: methylcellulose (MC) 93 % of control | [13] 104 % of control | dose: 125.0 mg/kg/injection, schedule: Q01DX Z (ip), vehicle: methylcellulose (MC) 90 % of control | [14] 117 % of control

C=C=CC1CCCC1C (stereo not drawn)
inactive: [6] 110 % of control | [7] 106 % of control | [9] 92 % of control

O=S(=O)(CC(Cl)c1ccccc1)c1ccccc1 (stereo not drawn)
inactive: dose: 100.0 mg/kg/injection, schedule: Q01DX001 (ip), vehicle: acetone 95 % of control | [3] 91 % of control | dose: 200.0 mg/kg/injection, schedule: Q01DX001 (ip), vehicle: acetone 98 % of control | [4] 94 % of control | dose: 400.0 mg/kg/injection, schedule: Q01DX001 (ip), vehicle: acetone 92 % of control | [5] 89 % of control

C=C(C)CCC1C(=O)N(c2ccccc2)N(c2ccccc2)C1=O
inactive: [15] 103 % of control | [12] 95 % of control | [13] 100 % of control

CC[CH2][Pb]([CH2]CC)([CH2]CC)[O]C(=O)CCl
inactive: dose: 3.0 mg/kg/injection, schedule: Q01DX009 (ip), vehicle: Klucel (hydroxypropylcellulose) (HPC) 106 % of control | dose: 6.0 mg/kg/injection, schedule: Q01DX009 (ip), vehicle: Klucel (hydroxypropylcellulose) (HPC) 101 % of control | dose: 12.5 mg/kg/injection, schedule: Q01DX009 (ip), vehicle: Klucel (hydroxypropylcellulose) (HPC) 96 % of control

CCOP(=O)(Nc1ccc2c(c1)Cc1cc(Br)ccc1-2)OCC
inactive: dose: 50.0 mg/kg/injection, schedule: Q01DX001 (ip), vehicle: carboxymethylcellulose (CMC) 105 % of control | dose: 100.0 mg/kg/injection, schedule: Q01DX001 (ip), vehicle: carboxymethylcellulose (CMC) 92 % of control | dose: 200.0 mg/kg/injection, schedule: Q01DX001 (ip), vehicle: carboxymethylcellulose (CMC) 105 % of control | dose: 400.0 mg/kg/injection, schedule: Q01DX001 (ip), vehicle: carboxymethylcellulose (CMC) 108 % of control

CCC[CH2][Sn]([CH2]CCC)([O]S(C)(=O)=O)[O]S(C)(=O)=O
inactive: dose: 1.56 mg/kg/injection, schedule: Q01DX009 (ip), vehicle: Klucel (hydroxypropylcellulose) (HPC) 105 % of control | dose: 3.12 mg/kg/injection, schedule: Q01DX009 (ip), vehicle: Klucel (hydroxypropylcellulose) (HPC) 105 % of control

CCCCNC(=O)/C(=C\c1ccccc1)NC(C)=O
inactive: dose: 3.0 mg/kg/injection, schedule: Q04DX003 (ip), vehicle: DMSO 92 % of control | dose: 6.0 mg/kg/injection, schedule: Q04DX003 (ip), vehicle: DMSO 92 % of control | dose: 6.25 mg/kg/injection, schedule: Q01DX009 (ip), vehicle: DMSO 96 % of control | dose: 12.0 mg/kg/injection, schedule: Q04DX003 (ip), vehicle: DMSO 94 % of control | dose: 12.5 mg/kg/injection, schedule: Q01DX009 (ip), vehicle: DMSO 93 % of control | dose: 12.5 mg/kg/injection, schedule: Q04DX003 (ip), vehicle: DMSO 100 % of control

CNCCNC
inactive: [1] 94 % of control | dose: 100.0 mg/kg/injection, schedule: Q04DX002 (ip), vehicle: saline 103 % of control | [2] 102 % of control | dose: 200.0 mg/kg/injection, schedule: Q04DX002 (ip), vehicle: saline 103 % of control | dose: 400.0 mg/kg/injection, schedule: Q01DX001 (ip), vehicle: saline 96 % of control | dose: 400.0 mg/kg/injection, schedule: Q04DX002 (ip), vehicle: saline 90 % of control

COC(=O)C1CCC1(C#N)C(=O)OC (stereo not drawn)
inactive: [3] 93 % of control | dose: 100.0 mg/kg/injection, schedule: Q04DX003 (ip), vehicle: saline 98 % of control | [4] 92 % of control | dose: 200.0 mg/kg/injection, schedule: Q04DX003 (ip), vehicle: saline 98 % of control | [5] 109 % of control | dose: 400.0 mg/kg/injection, schedule: Q04DX003 (ip), vehicle: saline 106 % of control

CC(=O)CC(=O)Nc1cc(Cl)ccc1C
inactive: dose: 100.0 mg/kg/injection, schedule: Q04DX003 (ip), vehicle: Klucel (hydroxypropylcellulose) (HPC) 92 % of control | [14] 92 % of control | dose: 200.0 mg/kg/injection, schedule: Q04DX003 (ip), vehicle: Klucel (hydroxypropylcellulose) (HPC) 97 % of control | dose: 400.0 mg/kg/injection, schedule: Q04DX003 (ip), vehicle: Klucel (hydroxypropylcellulose) (HPC) 92 % of control

CCOC(=S)c1ccc(S(=O)(=O)Nc2ccc(OCC)cc2)cc1
inactive: dose: 100.0 mg/kg/injection, schedule: Q01DX001 (ip), vehicle: Klucel (hydroxypropylcellulose) (HPC) 95 % of control | dose: 200.0 mg/kg/injection, schedule: Q01DX001 (ip), vehicle: Klucel (hydroxypropylcellulose) (HPC) 98 % of control | dose: 400.0 mg/kg/injection, schedule: Q01DX001 (ip), vehicle: Klucel (hydroxypropylcellulose) (HPC) 95 % of control

CSc1nc(N)nc(N)n1
inactive: [15] 97 % of control | [12] 100 % of control | [13] 93 % of control and 90 % of control | [14] 98 % of control

CN(CCC#N)c1ccc(/C=C(\C#N)c2ccc(Cl)cc2)cc1
inactive: [13] 102 % of control | [14] 103 % of control | dose: 400.0 mg/kg/injection, schedule: Q01DX009 (ip), vehicle: Klucel (hydroxypropylcellulose) (HPC) 105 % of control

O=C(c1ccccc1)C1(c2ccccc2)SC1(C(=O)c1ccccc1)c1ccccc1 (stereo not drawn)
inactive: [8] 92 % of control | [10] 91 % of control | [11] 87 % of control

c1ccc2[nH]c(SCCSc3nc4ccccc4[nH]3)nc2c1
inactive: dose: 100.0 mg/kg/injection, schedule: Q04DX002 (ip), vehicle: Klucel (hydroxypropylcellulose) (HPC) 111 % of control | dose: 200.0 mg/kg/injection, schedule: Q04DX002 (ip), vehicle: Klucel (hydroxypropylcellulose) (HPC) 107 % of control | dose: 400.0 mg/kg/injection, schedule: Q04DX002 (ip), vehicle: Klucel (hydroxypropylcellulose) (HPC) 92 % of control

— PubChem BioAssay AID248 (DTP/NCI, 2004)
